Data set [1] in a line: BET surface area. It is filed as physicochemical. To be noted: Renazorb-014 (LDOC), second block. From the text: By “relatively greater” it is meant that if the processes of the '782 patent and those of the present invention were run under generally identical conditions but with, for example, ammonium carbonate or bicarbonate used instead of sodium carbonate, the surface area, as measured by BET or otherwise, of the LCH or lanthanum oxycarbonates of the present invention would be even higher than that resulting from the practice of the '782 patent. The ammonium carbonate process of the present invention should yield BET surface areas (SA) in the 1 to 100 m^2/g range for LCH. […] To this end, as used herein “relatively greater BET surface area” refers to the greater BET surface area of the LDOC compound of the present invention when compared to the respective compound in U.S. Pat. No. 7,588,782 when made using similar ingredients, and under similar conditions but using the process described in that patent. As noted above, both processes are capable of producing very fine particles/high surface area. Again without wishing to be bound by any particular theory of operation, it may be that the greater porosity of the materials resulting from the present invention may effectively increase the overall surface area (or more reactive surfaces) allowing for, inter alia, improved binding kinetics. This is predicated on the porosity of individual or primary particles, not aggregates. Thus, it is believed that the primary particles of the invention provide relatively greater porosity than would be measured for particles made in accordance with the '782 patent. […] Furthermore, “porosity” as used herein means cumulative adsorption pore volume determined using a static pressure surface area analyzer with nitrogen as the adsorbate and calculating the pore size by The Barrett, Joyner, and Halenda (BJH) method (Barrett E. P., Loyner L. G. and Halenda P. P., The determination of pore volume and area distributions in porous substances. I. Computations from nitrogen isotherms, J. Am. Chem. Soc. 73 (1951) pp. 373-380).
As contemplated herein, BET surface area of the lanthanum compounds disclosed herein may be determined as provided in U.S. Pat. No. 7,588,782.

Data set [2] in a line: Laser particle size (Coulter LS230), aggregate D10/D50/D90 by volume. It is filed as physicochemical. The settings on record: Renazorb-014 (LDOC), second block. From the text: Aggregate size as described herein is either determined by scanning electron microscopy (SEM) or laser diffraction on a Coulter LS230. […] But these appear more aggregated.
Laser particle size data can be produced using, for example, a LS230 Laser Particle Size Analyzer manufactured by Coulter.
Average the runs using the LS230 software and have the software calculate the desired volume D results (i.e. for D1, D10, D50, D90, and D99).
The Refractive Index (RI) of a solid is required to perform an accurate laser PSD analysis for particles under 1 μm. The RI of the test materials were not listed in literature at the time this method was developed. […] Therefore an RI of 2.1 was chosen.

The nature of data set [3]: Bulk density. It is filed as physicochemical. The settings on record: Renazorb-014 (LDOC), second block. The protocol:
Bulk density in accordance with the invention can be determined by standard methods.
Graduated Cylinder Tare Weight was determined to be 225 g. 75 grams of sample was sieved into the graduated cylinder. The Gross Weight was determined to be 299.4 g. The volume of this sample was measured to be 141 mL. Thus, the Bulk Density of the powder is: Bulk Density (g/cc)=(299.4−225)/141=74.4/141=0.5277 g/cc Rounding this value to two decimal places gives a final reported value of 0.53 g/cc. 9.2 RSD=(R1−R2)×100/R1 where: RSD=Relative Standard Deviation (%) R1 & R2=Result of individual repeat (g/cc) 9.3 SR=R×100/V where: SR=Standard Recovery (%) R=Result for Reference Standard (g/cc) V=Historical average for standard (g/cc)

The nature of data set [4]: Phosphate binding at buffered pH 4.5 in dissolution unit, ICP-OES (% reaction completion). To be noted: Renazorb-014 (LDOC), second block; 4.5 pH @30 min. From the text: For each run, both the Renazorb-013 (LCH) and the Renazorb-014 (LDOC) were characterized. Renazorb-013 is important to characterize because its features (particularly physical features such as BET-Surface-Area, Particle Size Distribution, crystalline phase by XRD, bulk density) strongly impact the same critical features of Renazorb-014. The typical characterization suite of Renazorb-013 and Renazorb-014 includes BET-Surface-Area (BET-SA), Particle Size Distribution (PSD), crystalline phase by XRD, bulk density, chloride content, lanthanum content, carbon content. On top of this Renazorb-014 is tested for phosphate binding performance (4.5 pH @30 min). Assays such as La, C, Cl are typically fairly consistent and not under scrutiny.
The following procedure may be used to determine the phosphate binding kinetics/capacity in solutions at a buffered pH=4.5 for lanthanum dioxycarbonate.
Briefly, a heated, acetate buffered acidic solution, adjusted to a known pH and containing a known amount of phosphate is stirred constantly throughout the test in a dissolution unit. To this stirred solution is added a known amount of lanthanum compound at time=0. […] All samples are diluted in the proper matrix and analyzed for phosphorus using an Inductively Coupled Plasma instrument equipped with an Optical Emission spectrophotometer detector (ICP-OES). […]

The values below come from patent US10350240B2, “Lanthanum carbonate hydroxide, lanthanum oxycarbonate and methods of their manufacture and use” (Spectrum Pharmaceuticals, Inc., priority 2010, dated 2019).

As to `O=C([O-])[O-].[La+3].[La+3].[O-2].[O-2]` [Batch 110508, lanthanum dioxycarbonate], the “Surface Area” value in data set [1] is recorded as 16.7 m^2/g. In addition, in data set [2], the “D10 Sonicated SOP-QC-GMP-2402” value is on record as 6.6 um, the “D50 Sonicated SOP-QC-GMP-2402” value turned out to be 50 um and the “D90 Sonicated SOP-QC-GMP-2402” value is reported as 151 um. The “Bulk Density” value in data set [3] is 0.56 g/cc. Moreover, the “Po4 binding @4.5 pH (rxn comp. %)” value in data set [4] worked out at 92%.
